# Experimental data: patent publication EP4678638A1, “NEW E3 UBIQUITIN LIGASE LIGAND, PROTEIN DEGRADATION AGENT AND USE THEREOF” (priority 2023, dated 2024)
# Like-named read-outs stand apart in the source and are kept apart here.
# What was measured:
# [1] = system: SU-DHL-6; assay: CCK-8 proliferation, SU-DHL-6; type: cell-based; conditions: Homo sapiens, read-out: Inhibitory activity (IC50) on tumor cell proliferation, SU-DHL-6
# Procedure: (§1) The tumor cells used herein were cultured in a cell culture medium listed in table A1 at 37°C in an incubator with 5% CO2. Prior to experimentation, all cell lines used were correctly identified by STR profiling, and tested negative for mycoplasma contamination using a mycoplasma detection kit through routine screenings. Table A1. Tumor cells and cell culture medium used in the present disclosure
# (§2) IC50 values of the compounds of the present disclosure (including the compounds in Table 1, and compounds of examples) were measured using the Meilun Cell Counting Kit-8 kit from Dalian Meilun Biotech Co., Ltd. Assay details are as follows: tumor cells were seeded in a 96-well plate at a density listed in Table A2. After 24h, 100 µL of the inoculated cells were treated with 0.5µL of the compounds of the present disclosure (including the compounds in Tables 1 and 2, and compounds of examples) at 10 different successively decreasing concentrations (starting at the highest concentration of 10µM; 5-fold serial dilutions). After the cells were treated with the compounds of the present disclosure for a period of time, the cell viability detection reagent was added to the culture medium for cell viability assessment according to the instructions provided with the CCK-8 kit. […] The growth inhibition of the compounds of the present disclosure on cells was plotted by Prism Graphpad software, and the IC50 values of the compounds of the present disclosure were calculated therefrom. […] Seeding protocol and treatment time for tumor cells
# [2] = system: TMD8; assay: CCK-8 proliferation, TMD8; type: cell-based; conditions: Homo sapiens, read-out: Inhibitory activity (IC50) on tumor cell proliferation, TMD8
# Procedure: as §1, §2
# [3] = target: T1, human Cereblon WT GST-tagged protein (Homo sapiens, UniProt Q96SW2); assay: CRBN binding, HTRF (CEREBLON BINDING kit); conditions: for inhibition at 0.5 µM: read-out: Inhibition rate (%) at 0.5µM; for inhibition at 2 µM: read-out: Inhibition rate (%) at 2 µM
# T1 construct: purchased CISBIO 64BDCRBNPEH
# Summary of the method: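 Competitive HTRF: GST-tagged human WT Cereblon mixed with compound, Thalidomide-Re tracer and GST Eu antibody, incubated 3 h at room temperature. Signals read at 620 and 665 nm.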
# [4] = system: LNcap; assay: CCK-8 proliferation, LNcap; type: cell-based; conditions: Homo sapiens, LNCaP; CCK-8; 96 hours; read-out: Inhibitory activity (IC50) on tumor cell proliferation, Lncap
# Summary of the method: (§3)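 Cells seeded, then after 24 h treated with 10 concentrations (top 10 µM, 5-fold serial dilution) for a line-specific time at 37°C, 5% CO2. Viability read by CCK-8; IC50 fitted from growth-inhibition curves.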
# [5] = system: LS174T; assay: CCK-8 proliferation, LS174T; type: cell-based; conditions: Homo sapiens, read-out: Inhibitory activity (IC50) on tumor cell proliferation, LS174T
# Procedure: IC50 values of the compounds of the present disclosure (including the compounds in Table 1, and compounds of examples) were measured using the Meilun Cell Counting Kit-8 kit from Dalian Meilun Biotech Co., Ltd. Assay details are as follows: tumor cells were seeded in a 96-well plate at a density listed in Table A2. After 24h, 100 µL of the inoculated cells were treated with 0.5µL of the compounds of the present disclosure (including the compounds in Tables 1 and 2, and compounds of examples) at 10 different successively decreasing concentrations (starting at the highest concentration of 10µM; 5-fold serial dilutions). After the cells were treated with the compounds of the present disclosure for a period of time, the cell viability detection reagent was added to the culture medium for cell viability assessment according to the instructions provided with the CCK-8 kit. […] The growth inhibition of the compounds of the present disclosure on cells was plotted by Prism Graphpad software, and the IC50 values of the compounds of the present disclosure were calculated therefrom. [drawing 1519] Table A2. Seeding protocol and treatment time for tumor cells
# [6] = system: THP-1; assay: CCK-8 proliferation, THP-1; type: cell-based; conditions: Homo sapiens, 72 hours, read-out: Inhibitory activity (IC50) on tumor cell proliferation, THP-1
# Procedure: as §1, §2
# [7] = system: CCRF-CEM; assay: CCK-8 proliferation, CCRF-CEM; type: cell-based, Human; conditions: Homo sapiens, CCRF-CEM; CCK-8; 96 hours; read-out: Inhibitory activity (IC50) on tumor cell proliferation, CCRF-CEM
# Summary of the method: as §3
# [8] = system: Jurkat; assay: CCK-8 proliferation, Jurkat; type: cell-based, Human; conditions: Homo sapiens, Jurkat; CCK-8; 96 hours; read-out: Inhibitory activity (IC50) on tumor cell proliferation, Jurkat
# Summary of the method: as §3
# [9] = system: SW620; assay: CCK-8 proliferation, SW620; type: cell-based; conditions: Homo sapiens, read-out: Inhibitory activity (IC50) on tumor cell proliferation, SW620
# Summary of the method: as §3
# [10] = system: BXPC-3; assay: CCK-8 proliferation, BXPC-3; type: cell-based; conditions: Homo sapiens, 96 hours, read-out: Inhibitory activity (IC50) on tumor cell proliferation, BXPC-3
# Procedure: as §1, §2
# [11] = system: MGC-803; assay: CCK-8 proliferation, MGC-803 (heads: MGC80-3, MGC803); type: cell-based, Human; conditions: Homo sapiens, MGC-803; CCK-8; 72 hours; read-out: Inhibitory activity (IC50) on tumor cell proliferation, MGC80-3
# Summary of the method: as §3
# [12] = system: H520; assay: CCK-8 proliferation, H520; type: cell-based; conditions: Homo sapiens, NCI-H520, 96 hours, read-out: Inhibitory activity (IC50) on tumor cell proliferation, H520
# Procedure: as §1, §2
# [13] = system: MM.1R; assay: CCK-8 proliferation, MM.1R; type: cell-based; conditions: 72 h, read-out: Inhibitory activity (IC50) on tumor cell proliferation, MM.1R
# Summary of the method: as §3
# [14] = system: H2228; assay: CCK-8 proliferation, NCI-H2228 (H2228); type: cell-based; conditions: Homo sapiens, NCI-H2228, 96 h, read-out: Inhibitory activity (IC50) on tumor cell proliferation, H2228
# Summary of the method: as §3
# [15] = system: PC-9; assay: CCK-8 proliferation, PC-9; type: cell-based, Human; conditions: Homo sapiens, PC-9, 96 h, read-out: Inhibitory activity (IC50) on tumor cell proliferation, PC-9
# Summary of the method: as §3
# [16] = system: H1975; assay: CCK-8 proliferation, NCI-H1975 (H1975); type: cell-based, Human; conditions: Homo sapiens, NCI-H1975, 96 h, read-out: Inhibitory activity (IC50) on tumor cell proliferation, H1975
# Summary of the method: as §3
# T1 sequence (Q96SW2 whole entry): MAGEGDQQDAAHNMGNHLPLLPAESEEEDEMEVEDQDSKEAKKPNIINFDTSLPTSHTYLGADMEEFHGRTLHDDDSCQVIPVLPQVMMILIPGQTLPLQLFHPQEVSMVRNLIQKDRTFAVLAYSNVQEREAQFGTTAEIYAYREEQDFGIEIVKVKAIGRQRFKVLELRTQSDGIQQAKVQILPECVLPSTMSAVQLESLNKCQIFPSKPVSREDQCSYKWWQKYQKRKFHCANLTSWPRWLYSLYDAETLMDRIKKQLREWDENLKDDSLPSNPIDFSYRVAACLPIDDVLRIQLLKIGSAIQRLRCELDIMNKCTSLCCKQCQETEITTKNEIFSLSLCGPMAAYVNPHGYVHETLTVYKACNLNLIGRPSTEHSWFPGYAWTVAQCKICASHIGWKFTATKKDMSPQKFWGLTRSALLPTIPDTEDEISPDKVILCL
SMILES,"IC50 ([1]; SU-DHL-6, CCK-8, 72 hours)","IC50 ([2]; TMD8, CCK-8, 72 hours)",IC50 [4],IC50 [5],IC50 [6],IC50 [7],IC50 [8],"IC50 ([9]; SW-620, CCK-8, 96 hours)",also measured
"Nc1ncnc2c1c(-c1ccc(Oc3ccccc3)cc1)nn2C1CCN(Cc2ccc(C3CCC(=O)NC3=O)cc2)CC1 (centres unmarked) [GT-03507, 3-(4-((4-(4-amino-3-(4-phenoxyphenyl)-1H-pyrazolo[3,4-d]pyrimidin-1-yl)piperidin-1-yl)methyl)phenyl)piperidine-2,6-dione]",500 to 1000 nM,100 to 500 nM,,,,,,,inhibition at 0.5 µM [3]: 30 to 40%; inhibition at 2 µM [3]: 80 to 100%
"Nc1ncnc2c1c(-c1ccc(Oc3ccccc3)cc1)nn2C1CCN(Cc2ccc(C3CCC(=O)NC3=O)c(F)c2)CC1 (centres unmarked) [GT-03508, 3-(4-((4-(4-amino-3-(4-phenoxyphenyl)-1H-pyrazolo[3,4-d]pyrimidin-1-yl)piperidin-1-yl)methyl)-2-fluorophenyl)piperidine-2,6-dione]",500 to 1000 nM,100 to 500 nM,,,,,,,"inhibition at 0.5 µM ([3]; Table II-2, CRBN binding screening, HTRF, at 0.5µM): 30 to 40%; inhibition at 2 µM ([3]; Table II-2, CRBN binding screening, HTRF, at 2 µM): 60 to 80%"
"Nc1ncnc2c1c(-c1ccc(Oc3ccccc3)cc1)nn2[C@H]1CCN(Cc2ccc(C3CCC(=O)NC3=O)c(F)c2)C[C@H]1F (stereo partly drawn) [GT-03513, 3-(4-(((3R,4S)-4-(4-amino-3-(4-phenoxyphenyl)-1H-pyrazolo[3,4-d]pyrimidin-1-yl)-3-fluoropiperidin-1-yl)methyl)-2-fluorophenyl)piperidine-2,6-dione]",100 to 500 nM,100 to 500 nM,,,,,,,
"Nc1ncnc2c1c(-c1ccc(Oc3ccccc3)cc1)nn2[C@H]1CCN(Cc2ccc(C3CCC(=O)NC3=O)cc2)C[C@H]1F (stereo partly drawn) [GT-03542, 3-(4-(((3R,4S)-4-(4-amino-3-(4-phenoxyphenyl)-1H-pyrazolo[3,4-d]pyrimidin-1-yl)-3-fluoropiperidin-1-yl)methyl)phenyl)piperidine-2,6-dione]",100 to 500 nM,100 to 500 nM,,,,,,,inhibition at 0.5 µM [3]: 20 to 30%; inhibition at 2 µM [3]: 80 to 100%
"CC1(C)CCC(c2ccc(Cl)cc2)=C(CN2CCN(c3ccc(C(=O)NS(=O)(=O)c4ccc(N[C@H](CCN5CCN(Cc6ccc(C7CCC(=O)NC7=O)c(F)c6)CC5)CSc5ccccc5)c(S(=O)(=O)C(F)(F)F)c4)cc3)CC2)C1 (stereo partly drawn) [GT-04152, 4-(4-((4'-chloro-4,4-dimethyl-3,4,5,6-tetrahydro-[1,1'-biphenyl]-2-yl)methyl)piperazin-1-yl)-N-((4-(((2R)-4-(4-(4-(2,6-dioxopiperidin-3-yl)-3-fluorobenzyl)piperazin-1-yl)-1-(phenylthio)butan-2-yl)amino)-3-((trifluoromethyl)sulfonyl)phenyl)sulfonyl)benzamide]",,1 to 10 nM,50 to 100 nM,50 to 100 nM,10 to 50 nM,1 to 10 nM,1 to 10 nM,1 to 10 nM,
"CC1(C)CCC(c2ccc(Cl)cc2)=C(CN2CCN(c3ccc(C(=O)NS(=O)(=O)c4ccc(N[C@H](CCN5CCN(Cc6cccc(N7CCC(=O)NC7=O)c6)CC5)CSc5ccccc5)c(S(=O)(=O)C(F)(F)F)c4)cc3)CC2)C1 [GT-04278, (R)-4-(4-((4'-chloro-4,4-dimethyl-3,4,5,6-tetrahydro-[1,1'-biphenyl]-2-yl)methyl)piperazin-1-yl)-N-((4-((4-(4-(3-(2,4-dioxotetrahydropyrimidin-1(2H)-yl)benzyl)piperazin-1-yl)-1-(phenylthio)butan-2-yl)amino)-3-((trifluoromethyl)sulfonyl)phenyl)sulfonyl)benzamide]",,10 to 50 nM,100 to 500 nM,500 to 1000 nM,10 to 50 nM,1 to 10 nM,10 to 50 nM,100 to 500 nM,
"CC1(C)CCC(c2ccc(Cl)cc2)=C(CN2CCN(c3ccc(C(=O)NS(=O)(=O)c4ccc(N[C@H](CCN5CCN(Cc6cccc(NC7CCC(=O)NC7=O)c6)CC5)CSc5ccccc5)c(S(=O)(=O)C(F)(F)F)c4)cc3)CC2)C1 (stereo partly drawn) [GT-04279, 4-(4-((4'-chloro-4,4-dimethyl-3,4,5,6-tetrahydro-[1,1'-biphenyl]-2-yl)methyl)piperazin-1-yl)-N-((4-(((2R)-4-(4-(3-((2,6-dioxopiperidin-3-yl)amino)benzyl)piperazin-1-yl)-1-(phenylthio)butan-2-yl)amino)-3-((trifluoromethyl)sulfonyl)phenyl)sulfonyl)benzamide]",,10 to 50 nM,50 to 100 nM,100 to 500 nM,10 to 50 nM,1 to 10 nM,10 to 50 nM,50 to 100 nM,
"Cc1ccc(-c2c(C)noc2C)cc1N(CC1CCN(Cc2ccc(N3CCC(=O)NC3=O)c(F)c2)CC1)c1ccc(C2(C#N)CC2)cc1 [GT-04843, 1-(4-((5-(3,5-dimethylisoxazol-4-yl)-2-methylphenyl)((1-(4-(2,4-dioxotetrahydropyrimidin-1(2H)-yl)-3-fluorobenzyl)piperidin-4-yl)methyl)amino)phenyl)cyclopropane-1-carbonitrile]",,,,,500 to 1000 nM,,,,IC50 [10]: 100 to 500 nM; IC50 [11]: 100 to 500 nM; IC50 [12]: 500 to 1000 nM
"Cc1ccc(-c2c(C)noc2C)cc1N(CC1CCN(Cc2ccc(N3CCC(=O)NC3=O)cc2)CC1)c1ccc(C2(C#N)CC2)cc1 [GT-04844, 1-(4-((5-(3,5-dimethylisoxazol-4-yl)-2-methylphenyl)((1-(4-(2,4-dioxotetrahydropyrimidin-1(2H)-yl)benzyl)piperidin-4-yl)methyl)amino)phenyl)cyclopropane-1-carbonitrile]",,,,,500 to 1000 nM,,,,IC50 [10]: 100 to 500 nM; IC50 [11]: 100 to 500 nM; IC50 [12]: 500 to 1000 nM
"C=CC(=O)N1CCC[C@@H](n2nc(-c3ccc(Oc4ccccc4)cc3)c3c(N)ncnc32)C1 [ibrutinib, Ibrutinib, reference compound]",,,,,,,,,"IC50 ([1]; SU-DHL-6, 72 h): 100 to 500 nM; IC50 [13]: > 10000 nM; IC50 [14]: > 10000 nM; IC50 [15]: 100 to 500 nM; IC50 [16]: 500 to 1000 nM; IC50 ([2]; TMD8, 72 h): > 10000 nM; IC50 ([9]; SW-620, 96 h): > 10000 nM"
